# Data reported in patent US20050239764A1, “Zinc pyrrolidonecarboxylate dihydrate and method of producing the same” (Ajinomoto Co., Inc., priority 2004, published 2005).
# Conditions: dihydrate; for transmittance (T %) of 10 g/dl aqueous solution: 4 g dissolved in water to 40 ml, kept at 25° C. for one day, stirred 1 min, 550 nm, optical path 10 mm, 25° C.; for liquid of 10 g/dl aqueous solution: evaluation grade of dissolution state from transmittance at 550 nm, 10 mm path
# Experimental: Apparatus: Spectrophotometer V-570 (JAS. CO)
# Spectrophotometer (UV/VIS/NIR)
# measure wavelength: 550 nm
# band width (near infrared): 8.0 nm
# repeating interval: 3 sec.
# measure cell: quartz glass cell T-1-UV-10 manufactured by TOSOH Quartz Co.
# (Optical path width: 10 mm, outside width; 12.5 mm, height; 45 mm)
# measure temperature: 25° C.(R.T.)
# 1) Stabilization of value was performed, thereby starting setting until 2 hours before measuring.
# 2) Determination of measuring program: Fixed Wavelength program was selected, and then initialization of wavelength was performed.
# 3) Injecting ion exchange water (about 3 ml) into each of blank cell and sample cell, setting on photometer, correcting zero point, and then determining a blank (Completion of measuring preparation).
# RIKEN KOGYO INC., Magmix Stirrer) at 3 of speed range, and then the solution (3 ml) was injected into measuring cell immediately.
# 5) The cell was equipped photometer immediately after confirming absence of bubble in the cell.
# 6) After setting, the cell was stood for 1 min, and then subjected to measurement.
# 7) The transmittance (% T) is the value measured with photometer.
# Under the above conditions, the transmittance was obtained accurately although measuring sample comprised insoluble material, because insoluble material was dispersed uniformly in the whole cell.
transmittance (T %) of 10 g/dl aqueous solution [%],liquid of 10 g/dl aqueous solution,Substance
97.9,⊚,zinc pyrrolidonecarboxylate dihydrate [Ex. 5]
96.6,◯,zinc pyrrolidonecarboxylate dihydrate [Ex. 1]
86.1,Δ (Δ: 93-85%),zinc pyrrolidonecarboxylate dihydrate [Ex. 6]
30.6,–,"zinc pyrrolidonecarboxylate dihydrate [Com. Ex. 2, reference compound]"
96.9,◯,zinc pyrrolidonecarboxylate dihydrate [Ex. 3]
17.5,–,"zinc pyrrolidonecarboxylate dihydrate [Com. Ex. 1, reference compound]"
97.6,⊚,zinc pyrrolidonecarboxylate dihydrate [Ex. 4]
19.9,–,"zinc pyrrolidonecarboxylate dihydrate [Com. Ex. 4, reference compound]"
97.6,⊚,zinc pyrrolidonecarboxylate dihydrate [Ex. 2]
60.3,–,"zinc pyrrolidonecarboxylate dihydrate [Com. Ex. 3, reference compound]"

Substance,transmittance (T %) of 10 g/dl aqueous solution [%],liquid of 10 g/dl aqueous solution
zinc pyrrolidonecarboxylate dihydrate [Ex. 7],95.7,–
